Values belong to the molecule of their own block, whether it stands above or below them.
Target: T1R1/T1R3 (Homo sapiens (Human), UniProt Q7RTX0+Q7RTX1)
Assay: Umami enhancement assay: MSG dose response with and without compound
Assay type: cell-based
Conditions: for Umami EC50 ratio: Table 5, compound concentration not given
Procedure: In enhancement assay experiments, a MSG dose response was run and a second MSG dose response was run with a certain amount of candidate compound at every MSG concentrations at the same time. Then, the EC50 ratio is calculated based on the following definitions: EC50 Ratio=EC50(MSG)/EC50(MSG+[Compound])
wherein “[compound]” refers to the concentration of compound used to elicit (or enhance or potentiate) the MSG dose response. Those concentrations can vary from a pM to an mM, more preferred, from a low nM to μM.
HEK-Gα15 cells were engineered to inducibly express T1R1/T1R3 using the GeneSwitch system (Invitrogen). pGene-derived zeocin-resistant expression vectors for human T1R1 and T1R3 (plasmid SXV603 for T1R1 and SXV611 for T1R3) and a puromycin-resistant pSwitch-derived vector that carries the GeneSwitch protein (plasmid SXV628) were linearized and cotransfected into the HEK-Gα15 cell line. Zeocin-resistant and puromycin-resistant colonies were selected, expanded, induced with variable amounts of mifepristone, and tested by calcium imaging for responses to umami taste stimuli. […] After replacement with 50 μl PBS, stimulation was performed at room temperature by the addition of 50 μl PBS supplemented with different stimuli. The maximal fluorescence from four independent determinations were averaged, corrected for background fluorescence measured prior to compound addition, and normalized to the response to 0.002 mM ionomycin (CALBIOCHEM).

T1R1/T1R3, sequence (Q7RTX1 21-841): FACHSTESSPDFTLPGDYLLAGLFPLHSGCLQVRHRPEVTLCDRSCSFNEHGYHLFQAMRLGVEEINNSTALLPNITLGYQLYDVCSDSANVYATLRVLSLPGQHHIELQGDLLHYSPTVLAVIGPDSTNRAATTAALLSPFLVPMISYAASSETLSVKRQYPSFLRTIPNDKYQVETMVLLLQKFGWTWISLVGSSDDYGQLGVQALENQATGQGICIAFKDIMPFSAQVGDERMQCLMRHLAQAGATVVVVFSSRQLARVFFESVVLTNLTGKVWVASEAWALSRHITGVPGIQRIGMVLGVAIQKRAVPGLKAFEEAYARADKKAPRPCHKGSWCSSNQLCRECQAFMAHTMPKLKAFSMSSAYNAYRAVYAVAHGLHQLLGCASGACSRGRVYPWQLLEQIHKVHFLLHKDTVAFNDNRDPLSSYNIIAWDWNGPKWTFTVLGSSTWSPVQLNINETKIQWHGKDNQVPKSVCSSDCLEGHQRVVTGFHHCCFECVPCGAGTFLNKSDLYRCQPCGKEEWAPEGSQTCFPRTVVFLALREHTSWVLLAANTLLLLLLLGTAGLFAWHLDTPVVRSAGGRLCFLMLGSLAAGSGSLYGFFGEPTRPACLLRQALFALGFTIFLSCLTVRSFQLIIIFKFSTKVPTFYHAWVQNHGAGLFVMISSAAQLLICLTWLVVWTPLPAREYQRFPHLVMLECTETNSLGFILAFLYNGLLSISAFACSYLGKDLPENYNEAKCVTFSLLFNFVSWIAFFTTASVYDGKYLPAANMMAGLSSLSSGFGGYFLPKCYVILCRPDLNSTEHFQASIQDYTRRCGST
T1R1/T1R3, sequence (Q7RTX0 21-852 C757R): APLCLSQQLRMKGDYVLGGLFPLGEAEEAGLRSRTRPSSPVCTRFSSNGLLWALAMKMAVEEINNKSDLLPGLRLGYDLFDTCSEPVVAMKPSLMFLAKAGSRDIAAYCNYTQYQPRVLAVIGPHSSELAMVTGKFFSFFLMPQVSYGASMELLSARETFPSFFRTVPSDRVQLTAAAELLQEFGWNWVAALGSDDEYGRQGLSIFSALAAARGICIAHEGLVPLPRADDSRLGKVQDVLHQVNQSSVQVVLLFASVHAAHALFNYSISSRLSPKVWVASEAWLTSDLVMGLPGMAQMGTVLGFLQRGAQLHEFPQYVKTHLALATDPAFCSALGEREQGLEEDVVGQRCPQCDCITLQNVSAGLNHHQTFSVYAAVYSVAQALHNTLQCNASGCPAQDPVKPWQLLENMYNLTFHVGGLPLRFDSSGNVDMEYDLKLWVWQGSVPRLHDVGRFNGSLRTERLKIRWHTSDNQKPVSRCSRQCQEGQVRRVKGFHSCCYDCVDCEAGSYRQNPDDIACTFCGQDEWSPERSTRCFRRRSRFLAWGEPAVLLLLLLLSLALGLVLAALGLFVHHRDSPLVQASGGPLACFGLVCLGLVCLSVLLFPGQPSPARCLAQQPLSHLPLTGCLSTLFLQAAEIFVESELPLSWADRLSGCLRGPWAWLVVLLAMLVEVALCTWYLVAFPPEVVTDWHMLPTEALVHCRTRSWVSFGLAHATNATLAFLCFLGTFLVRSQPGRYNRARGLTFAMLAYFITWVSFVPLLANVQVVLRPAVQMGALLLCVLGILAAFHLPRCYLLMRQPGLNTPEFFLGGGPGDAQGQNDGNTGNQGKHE

Umami EC50 ratio: 4.04
Structure (SMILES): O=C(NC1CCCc2ccccc21)c1cccc(Cl)c1O (stereo not shown) [Compound E7, 3-chloro-2-hydroxy-N(-1,2,3,4-tetrahydronaphthalen-1-yl)benzamide]

Umami EC50 ratio: 2.07
Structure (SMILES): CC1CCCCC1NC(=O)c1cccc(C(F)(F)F)c1 (stereo not shown) [Compound E59, N-(2-methylcyclohexyl)-3-(trifluoromethyl)benzamide]

Ec50 ratio (vs. MSG) (Table 4, compound @ 1 uM): 8.48
Structure (SMILES): CCC(COC)NC(=O)/C=C/c1ccc(OC)cc1 (stereo not shown) [Compound D14, (E)-N-(1-methoxybutan-2-yl)-3-(4-methoxyphenyl)acrylamide]

Ec50 ratio (vs. MSG) (Table 4, compound @ 1 uM): 3.46
Structure (SMILES): COc1ccc(/C=C/C(=O)NC(C(C)C)C(C)C)cc1 [Compound D1, (E)-N-(2,4-dimethylpentan-3-yl)-3-(4-methoxyphenyl)acrylamide]

Ec50 ratio (vs. MSG) (Table 1, compound @ 1 uM): 5.7
Structure (SMILES): COc1cccc(C(=O)N[C@H]2CCCc3ccccc32)c1O [Compound A93]

Ec50 ratio (vs. MSG) (Table 1, compound @ 1 uM): 12.6
Structure (SMILES): CCCC(CCC)NC(=O)c1ccc(Br)o1 [Compound A30]

Umami EC50 ratio: 16.51
Structure (SMILES): COc1c(Cl)ccc(Cl)c1C(=O)Nc1ccccc1F [Compound E84, 3,6-dichloro-N-(2-fluorophenyl)-methoxybenzamide]

Ec50 ratio (vs. MSG) (Table 4, compound @ 0.3 uM): 2.7
Structure (SMILES): CCOc1ccc(/C=C/C(=O)NC(C)CC)cc1 (stereo not shown) [Compound D13, (E)-N-sec-butyl-3-(4-ethoxyphenyl)acrylamide]

Ec50 ratio (vs. MSG) (Table 1, compound @ 0.01 uM): 6.98
Structure (SMILES): COC(=O)c1ccc(NC(=O)c2c(Cl)ccc(Cl)c2OC)cc1 [Compound A2]

Ec50 ratio (vs. MSG) (Table 1, compound @ 1 uM): 8.81
Structure (SMILES): CCCC(CCC)NC(=O)c1ccc2cc[nH]c2c1 [Compound A35]

Ec50 ratio (vs. MSG) (Table 4, compound @ 1 uM): 9.73
Structure (SMILES): CC(CCc1ccccc1)NC(=O)/C=C/c1cccs1 (stereo not shown) [Compound D4, N-(1-Methyl-3-phenyl-propyl)-3-thiophen-2-yl-acrylamide]

Ec50 ratio (vs. MSG) (Table 3, Con. 1 uM): 4.49
Structure (SMILES): O=C(Nc1ccccc1F)NC1CCCc2ccccc21 (stereo not shown) [Compound C11, 1-(2-fluorophenyl)-3-(1,2,3,4-tetrahydronaphthalen-1-yl)urea]

Ec50 ratio (vs. MSG) (Table 1, compound @ 0.1 uM): 6.42
Structure (SMILES): O=C(N[C@H]1CCCc2ccccc21)c1ccc2c(c1)OCO2 [Compound A47]

Ec50 ratio (vs. MSG) (Table 1, compound @ 1 uM): 9.49
Structure (SMILES): Cc1cc(C(=O)NC2CCCc3ccccc32)ccc1O (stereo not shown) [Compound A102]

Ec50 ratio (vs. MSG) (Table 1, compound @ 1 uM): 2.74
Structure (SMILES): CCOc1ccc(NC(=O)c2c(Cl)ccc(Cl)c2OC)cc1 [Compound A1]

Ec50 ratio (vs. MSG) (Table 3, Con. 1 uM): 4.52
Structure (SMILES): CCC(NC(=O)Nc1ccc(Cl)cc1Cl)c1ccccc1 (stereo not shown) [Compound C2, 1-(2,4-dichlorophenyl)-3-(1-phenylpropyl)urea]

Ec50 ratio (vs. MSG) (Table 1, compound @ 1 uM): 2.79
Structure (SMILES): C=Cc1ccc(C(=O)N[C@H]2CCCc3ccccc32)cc1 [Compound A105]

Ec50 ratio (vs. MSG) (Table 1, compound @ 1 uM): 9.27
Structure (SMILES): CC(CCc1ccccc1)NC(=O)c1ccc2c(c1)OCO2 (stereo not shown) [Compound A48]

Ec50 ratio (vs. MSG) (Table 3, Con. 0.3 uM): 2.1
Structure (SMILES): CCOc1ccc(NC(=O)NC2CCCCC2C)cc1 (stereo not shown) [Compound C10, 1-(4-ethoxyphenyl)-3-(2-methylcyclohexyl)urea]

Ec50 ratio (vs. MSG) (Table 4, compound @ 0.3 uM): 2.22
Structure (SMILES): CCCC(CCC)NC(=O)/C=C/c1ccsc1 [Compound D15, (E)-N-(heptan-4-yl)-3-(thiophen-3-yl)acrylamide]

Ec50 ratio (vs. MSG) (Table 1, compound @ 0.03 uM): 6.14
Structure (SMILES): CCOc1ccc(NC(=O)c2cc(Cl)ccc2Cl)cc1 [Compound A3]

Ec50 ratio (vs. MSG) (Table 1, compound @ 0.3 uM): 2.62
Structure (SMILES): CCCC(CCC)NC(=O)c1ccc(OCC)cc1 [Compound A68]

Ec50 ratio (vs. MSG) (Table 1, compound @ 3 uM): 2.14
Structure (SMILES): CCCCC(CCCC)NC(=O)c1ccc2c(c1)OCO2 [Compound A41]

Structure (SMILES): COc1cc(C(=O)NC2CCCCC2C)cc(Cl)n1 (stereo not shown) [Compound E40, 2-chloro-6-methoxy-N-(2-methylcyclohexyl)isonicotinamide]
Umami EC50 ratio: 9.77

Ec50 ratio (vs. MSG) (Table 1, compound @ 1 uM): 2.3
Structure (SMILES): Cc1ccc(C(=O)NC2CCCc3ccccc32)s1 (stereo not shown) [Compound A39]

Ec50 ratio (vs. MSG) (Table 4, compound @ 1 uM): 6.3
Structure (SMILES): CCCC(CCC)NC(=O)/C=C/c1cccs1 [Compound D6, N-(1-Propyl-butyl)-3-thiophen-2-yl-acrylamide]

Ec50 ratio (vs. MSG) (Table 1, compound @ 1 uM): 9.53
Structure (SMILES): CCCC(NC(=O)c1ccc2c(c1)OCO2)C(=O)OC (stereo not shown) [Compound A49]

Ec50 ratio (vs. MSG) (Table 4, compound @ 1 uM): 9.62
Structure (SMILES): CCC(CC)NC(=O)/C=C/c1ccc(OC)cc1 [Compound D7, (E)-3-(4-methoxyphenyl)-N-(pentan-3-yl)acrylamide]

Ec50 ratio (vs. MSG) (Table 1, compound @ 1 uM): 10.04
Structure (SMILES): CCCC(CCC)NC(=O)c1cc(C)c(C)o1 [Compound A31]

Ec50 ratio (vs. MSG) (Table 1, compound @ 0.1 uM): 5.12
Structure (SMILES): CCCC(C)NC(=O)c1ccc(OC)c(Cl)c1 (stereo not shown) [Compound A80]

Umami EC50 ratio: 2.08
Structure (SMILES): CC1CCCCC1NC(=O)c1ccnc(Cl)c1 (stereo not shown) [Compound E56, 2-chloro-N-(2-methylcyclohexyl)isonicotinamide]

Ec50 ratio (vs. MSG) (Table 4, compound @ 1 uM): 3.13
Structure (SMILES): COc1ccc(/C=C/C(=O)NC(C)CCc2ccccc2)cc1OC (stereo not shown) [Compound D16, (E)-3-(3,4-dimethoxyphenyl)-N-(4-phenylbutan-2-yl)acrylamide]

Umami EC50 ratio: 6.98
Structure (SMILES): CC1CCCCC1NC(=O)c1ccc(F)c(F)c1 (stereo not shown) [Compound E81, 3,4-difluoro-N-(2-methylcyclohexyl)benzamide]

Ec50 ratio (vs. MSG) (Table 3, Con. 0.3 uM): 2.62
Structure (SMILES): COc1ccc(NC(=O)NC2CCCCC2C)c(OC)c1 (stereo not shown) [Compound C8, 1-(2,4-dimethoxyphenyl)-3-(2-methylcyclohexyl)urea]

Ec50 ratio (vs. MSG) (Table 1, compound @ 0.3 uM): 4.98
Structure (SMILES): CCCC(CCC)NC(=O)c1ccc(OC)c(F)c1 [Compound A74]

Ec50 ratio (vs. MSG) (Table 1, compound @ 1 uM): 6.54
Structure (SMILES): CCCC(CCC)NC(=O)c1ccc(C)s1 [Compound A38]

Ec50 ratio (vs. MSG) (Table 1, compound @ 1 uM): 2.86
Structure (SMILES): COC(=O)C(CC(C)C)NC(=O)c1cc2cc(OC)ccc2o1 (stereo in doubt) [Compound A6]

Ec50 ratio (vs. MSG) (Table 3, Con. 1 uM): 4.95
Structure (SMILES): CCCC(CCC)NC(=O)Nc1ccccc1Cl [Compound C1, 1-(2-chlorophenyl)-3-(heptan-4-yl)urea]

Ec50 ratio (vs. MSG) (Table 3, Con. 1 uM): 9.08
Structure (SMILES): CC(NC(=O)Nc1ccccc1Cl)C1CCCCC1 (stereo not shown) [Compound C5, 1-(2-chlorophenyl)-3-(1-cyclohexylethyl)urea]

Ec50 ratio (vs. MSG) (Table 1, compound @ 1 uM): 3.74
Structure (SMILES): CCC(CC)NC(=O)c1cc2ccccc2o1 [Compound A21]

Ec50 ratio (vs. MSG) (Table 1, compound @ 0.3 uM): 10.22
Structure (SMILES): C=Cc1ccc(C(=O)NC(CCC)CCC)cc1 [Compound A78]

Ec50 ratio (vs. MSG) (Table 3, Con. 1 uM): 3.68
Structure (SMILES): O=C(Nc1ccccc1Cl)NC1CCCc2ccccc21 (stereo not shown) [Compound C7, 1-(2-chlorophenyl)-3-(1,2,3,4-tetrahydronaphthalen-1-yl)urea]

Ec50 ratio (vs. MSG) (Table 1, compound @ 0.3 uM): 6.5
Structure (SMILES): CCC(COC)NC(=O)c1cc2cc(Cl)ccc2o1 (stereo not shown) [Compound A11]

Ec50 ratio (vs. MSG) (Table 4, compound @ 0.3 uM): 3.48
Structure (SMILES): CCCC(CCC)NC(=O)/C=C/c1ccc(OC)cc1 [Compound D5, (E)-N-(heptan-4-yl)-3-(4-methoxyphenyl)acrylamide]

Ec50 ratio (vs. MSG) (Table 1, compound @ 1 uM): 2.85
Structure (SMILES): COc1ccc([C@@H](C)NC(=O)c2ccc(OC)c(Cl)c2)cc1 [Compound A89]

Ec50 ratio (vs. MSG) (Table 3, Con. 3 uM): 12.15
Structure (SMILES): CCCC(CCC)NC(=O)Nc1ccccc1F [Compound C4, 1-(2-fluorophenyl)-3-(heptan-4-yl)urea]

Ec50 ratio (vs. MSG) (Table 1, compound @ 1 uM): 4.46
Structure (SMILES): CCC(CC)NC(=O)c1cc2cc(OC)ccc2o1 [Compound A13]

Ec50 ratio (vs. MSG) (Table 3, Con. 1 uM): 11.87
Structure (SMILES): CCC(CC)NC(=O)Nc1ccc(OC)cc1OC [Compound C13, 1-(2,4-dimethoxyphenyl)-3-(pentan-3-yl)urea]

Ec50 ratio (vs. MSG) (Table 1, compound @ 1 uM): 7.62
Structure (SMILES): CCCC(CCC)NC(=O)c1ccc(OC)cc1O [Compound A101]

Ec50 ratio (vs. MSG) (Table 1, compound @ 1 uM): 3.8
Structure (SMILES): COc1cccc(C(=O)NC2CCCc3ccccc32)c1O (stereo not shown) [Compound A87]

Ec50 ratio (vs. MSG) (Table 1, compound @ 0.3 uM): 4.01
Structure (SMILES): COc1ccc(C(=O)NC2CCc3ccccc32)cc1Cl (stereo not shown) [Compound A106]

Ec50 ratio (vs. MSG) (Table 3, Con. 3 uM): 3.24
Structure (SMILES): CC1CCCCC1NC(=O)Nc1ccccc1Cl (stereo not shown) [Compound C3, 1-(2-chlorophenyl)-3-(2-methylcyclohexyl)urea]

Reference: patent US9459250B2, “Use of T1R3 venus flytrap region polypeptide to screen for taste modulators” (SENOMYX, INC., priority 2003, dated 2016)
